Reference: patent EP0311163A2, “Use of site-specific modified lipolytic enzymes for the selective hydrolysis of organized lipid structures” (DUPHAR INTERNATIONAL RESEARCH B.V, priority 1987, dated 1989)

How the values were obtained:
Assay in all cases: Kinetic measurement with micellar L-dioctanoyl-lecithin (Vmax)
Type in all cases: biochemical
Settings in all cases: micellar substrate, titration of fatty acid with 10.3 mM NaOH at pH 6.0
[1] = tested on: Porcine pancreatic phospholipase A₂, [ε-Cap-Lys¹¹⁶]AMPA
Description: (§1) […]. A value of 8.8 is used for the N-terminal shortened bovine pancreas enzyme fragments missing Trp³. • b. The binding of the PLA's to micellar cis-9-octadecenyl phosphocholine is determined by means of UV absorption difference spectroscopy (De Aranjo et al., Biochem. 18, (1979), 580-586;; and Hille et al., Biochem. 20, (1981), 4068-4073). • c. Monolayer experiments are carried out using the zero order through with two compartments and the surface barostat technique for measuring phospholipid hydrolysis (Verger and De Haas, Chem. Phys. Lipids, 10, (1973), 127-136). Calculation of the induction time (τ) is carried out as described by Verger et al. J. Biol. Chem. 248 (1973), 4023-4034). Surface tension (π) is measured by means of the plate method by Wilhelmy using a thin platinum plate attached to a Beckman R II C Model LM 600 microbalance. • d. Kinetic measurements with micellar diC₈PC are carried out according to De Haas et al, Biochem. Biophys. Acta, 239, (1971) 252-266.
(§2) This means that the inherent catalytic activity of these pPLA's is not affected by the site-specific acylation. Although acylation of Lys¹¹⁶ with acetyl or maleyl results in a lower Vmax, the remaining activity is sufficient to hydrolyse micellar short chain lecithins effectively. TABLE A

[2] = target: T1, Bovine pancreatic phospholipase A₂ (PLA), native (Bos taurus, UniProt P00593)
T1 construct: pancreatic pro-PLA's can be purified and converted into the corresponding PLA's; from tissue; host or cells: bovine pancreas
T1 sequence (P00593 23-145): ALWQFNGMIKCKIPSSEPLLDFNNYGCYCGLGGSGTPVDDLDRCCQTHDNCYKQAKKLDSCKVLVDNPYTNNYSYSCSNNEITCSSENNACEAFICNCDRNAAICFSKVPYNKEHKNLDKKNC
Description: as §1, §2

[3] = tested on: Porcine pancreatic phospholipase A₂, [ε-NH₂-Lys¹¹⁶]AMPA
Description: as §1, §2

[4] = target: T2, Porcine pancreatic phospholipase A₂ (PLA), native (Sus scrofa, UniProt P00592)
T2 construct: pancreatic pro-PLA's can be purified and converted into the corresponding PLA's; from tissue; host or cells: pig pancreas
T2 sequence (P00592 23-146): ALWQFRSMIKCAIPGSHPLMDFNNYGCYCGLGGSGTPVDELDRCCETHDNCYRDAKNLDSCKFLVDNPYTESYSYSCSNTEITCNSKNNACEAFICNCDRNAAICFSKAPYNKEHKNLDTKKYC
Description: as §1, §2

[5] = tested on: Porcine pancreatic phospholipase A₂, [ε-Pal-Lys¹¹⁶]AMPA
Description: as §1, §2

[6] = tested on: Porcine pancreatic phospholipase A₂, [ε-Lau-Lys¹¹⁶]AMPA
Description: as §1, §2

[7] = tested on: Porcine pancreatic phospholipase A₂, [ε-Ol-Lys¹¹⁶]AMPA
Description: as §1, §2

[8] = tested on: Porcine pancreatic phospholipase A₂, [ε-Mal-Lys¹¹⁶]AMPA
Description: as §1, §2

[9] = tested on: Porcine pancreatic phospholipase A₂, [ε-Ac-Lys¹¹⁶]AMPA
Description: as §1, §2

[10] = target: T3, Bovine pancreatic phospholipase A₂, [Arg⁶,ε-Pal-Lys¹⁰]-AMPA (Bos taurus, UniProt P00593, N28R)
T3 construct: Conversion of fully ε-amidinated bovine pancreatic AMPrec in [Arg⁶, ε-Pal-Lys¹⁰]-AMPA; from tissue; host or cells: bovine pancreas; semisynthetic: amidinated fragment 11-123 re-elongated with Pal-Lys, Ile, Met and Ala.Leu.Trp.Gln.Phe.Arg.Gly
T3 sequence (P00593 23-145 N28R): as the sequence (P00593 23-145) above, with N6R counted along it
Description: as §1, §2

[11] = target: T4, Porcine pancreatic phospholipase A₂, AMPA (fully ε-amidinated PLA) (Sus scrofa, UniProt P00592)
T4 construct: fully ε-amidinated according to the method by Wallace and Harris, Biochem. J., 217, (1984), 589-594, and converted into AMPA; from tissue; host or cells: pig pancreas; chemically amidinated as the pro-enzyme, then converted to the active enzyme
T4 sequence (P00592 23-146): as the sequence (P00592 23-146) above
Description: as §1, §2

[12] = target: T5, Bovine pancreatic phospholipase A₂, [Arg⁶]-AMPA (Bos taurus, UniProt P00593, N28R)
T5 construct: fully ε-amidinated according to the method by Wallace and Harris, Biochem. J., 217, (1984), 589-594, and converted into AMPA; from tissue; host or cells: bovine pancreas
T5 sequence (P00593 23-145 N28R): as the sequence (P00593 23-145) above, with N6R counted along it
Description: as §1, §2

[13] = target: T6, Bovine pancreatic phospholipase A₂, AMPA (fully ε-amidinated PLA) (Bos taurus, UniProt P00593)
T6 construct: fully ε-amidinated according to the method by Wallace and Harris, Biochem. J., 217, (1984), 589-594, and converted into AMPA; from tissue; host or cells: bovine pancreas; chemically amidinated as the pro-enzyme, then converted to the active enzyme
T6 sequence (P00593 23-145): as the sequence (P00593 23-145) above
Description: as §1, §2

CCCCCCCC(=O)OC[C@H](COP(=O)([O-])OCC[N+](C)(C)C)OC(=O)CCCCCCC [L-dioctanoyl-lecithin, 1,2-dioctanoyl-sn-glycero-3-phosphocholine]
Vmax micellar L-dioctanoyl-lecithin [1]: 2100 µequiv. min⁻¹ mg⁻¹
Vmax micellar L-dioctanoyl-lecithin [2]: 3000 µequiv. min⁻¹ mg⁻¹
Vmax micellar L-dioctanoyl-lecithin [3]: 2000 µequiv. min⁻¹ mg⁻¹
Vmax micellar L-dioctanoyl-lecithin [4]: 2200 µequiv. min⁻¹ mg⁻¹
Vmax micellar L-dioctanoyl-lecithin [5]: 2200 µequiv. min⁻¹ mg⁻¹
Vmax micellar L-dioctanoyl-lecithin [6]: 2500 µequiv. min⁻¹ mg⁻¹
Vmax micellar L-dioctanoyl-lecithin [7]: 2600 µequiv. min⁻¹ mg⁻¹
Vmax micellar L-dioctanoyl-lecithin [8]: 405 µequiv. min⁻¹ mg⁻¹
Vmax micellar L-dioctanoyl-lecithin [9]: 755 µequiv. min⁻¹ mg⁻¹
Vmax micellar L-dioctanoyl-lecithin [10]: 5600 µequiv. min⁻¹ mg⁻¹
Vmax micellar L-dioctanoyl-lecithin [11]: 1650 µequiv. min⁻¹ mg⁻¹
Vmax micellar L-dioctanoyl-lecithin [12]: 5900 µequiv. min⁻¹ mg⁻¹
Vmax micellar L-dioctanoyl-lecithin [13]: 2300 µequiv. min⁻¹ mg⁻¹
